Source: PubChem BioAssay (NCI)
Where “and” joins values, the source holds several entries; their conditions need not be identical. Identical values can stand only once.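 Method: 48-hour compound exposure of cells in 96-well plates, five concentrations, linear interpolation of endpoints. Here, GI50 denotes the concentration required for 50% inhibition of growth. TGI marks complete inhibition of growth.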

Legend:
Assay in all cases: NCI tumour cell line growth inhibition, 48 h
[1] = tested on: SK-MEL-5 melanoma
[2] = tested on: PC-3 prostate
[3] = tested on: T-47D breast
[4] = tested on: M14 melanoma
[5] = tested on: OVCAR-8 ovarian
[6] = tested on: 786-0 renal
[7] = tested on: SF-539 CNS
[8] = tested on: SN12C renal
[9] = tested on: MOLT-4 leukemia
[10] = tested on: COLO 205 colon

SMILES	GI50 [1]	TGI [1]	GI50 [2]	TGI [2]	GI50 [3]	TGI [3]	GI50 [4]	TGI [4]	GI50 [5]	TGI [5]	GI50 [6]	TGI [6]	GI50 [7]	TGI [7]	GI50 [8]	TGI [8]	GI50 [9]	TGI [9]	GI50 [10]	TGI [10]
c1ccc2c(c1)CCCc1nnc3nc4ccccc4n3c1-2	4.89 µM	> 100 µM	7.87 µM	> 100 µM	5.49 µM	> 100 µM	3.13 µM	25.2 µM	5.02 µM	74.1 µM	5.12 µM	> 100 µM	3.57 µM	18.4 µM	8.15 µM	> 100 µM	4.49 µM	> 100 µM	4.78 µM	> 100 µM
COc1cc(-c2cc(-c3ccc(Nc4nc(Nc5ccc(Cl)cc5)nc(Nc5ccc(Cl)cc5)n4)cc3)no2)cc(OC)c1OC	4.47 µM	58.1 µM	0.565 µM	9.19 µM	3.15 µM	> 100 µM	7.11 µM	> 100 µM	36 µM	> 100 µM	3.6 µM	20.1 µM	9.05 µM	> 100 µM	39.1 µM	> 100 µM	1.23 µM	23.7 µM	2.26 µM	21.3 µM
C=C1CC2(CC(c3ccccc3C)OC(c3ccccc3C)C2)OC1=O (stereo not given)	–	3.97 µM	–	5.78 µM	–	3.21 µM	–	3.02 µM	–	4.63 µM	–	4.74 µM	–	3.1 µM	–	4.42 µM	–	21.4 µM	–	3.68 µM
COc1cc2cc(C(=O)Nc3ccccc3)c(N)nc2cc1OC	22.8 µM	88.8 µM	31.2 µM	> 100 µM	23.6 µM	> 100 µM	33.1 µM	> 100 µM	33.5 µM	> 100 µM	31.7 µM	> 100 µM	71.6 µM	> 100 µM	53.8 µM	> 100 µM	38.5 µM	> 100 µM	34 µM	> 100 µM
C/C=C1/CN2CCC34c5ccccc5N5C(=O)C(C6CC78c9ccccc9N9C(=O)C=CC(C%10CC7N6C/C%10=C/C)C98)=CC(C1CC23)C54 (stereo not given)	11.9 µM	12 µM and 25.1 µM	2.45 µM	9.38 µM	–	33.6 µM	3.81 µM	11.9 µM and 13.8 µM	2.78 µM	8.57 µM and 10.8 µM	5.51 µM	11.3 µM and 20.1 µM	12 µM	3.32 µM and 26.4 µM	11.9 µM	14.5 µM and 26.8 µM	–	5.56 µM	8.74 µM	12.4 µM and 26.6 µM
Cn1cc(-c2[nH]c3cc(NC(=O)[C@H](N)C4CCCCC4)cc4c3c2C=NNC4=O)cn1	0.696 µM and 0.55 µM	13.1 µM and > 10 µM	0.72 µM and 1.96 µM	18.3 µM and > 10 µM	15 µM	31.3 µM	0.163 µM and 0.234 µM	0.493 µM and > 4.31 µM	0.264 µM and 0.351 µM	4.08 µM and > 10 µM	0.256 µM and 0.315 µM	–	0.118 µM and 0.109 µM	0.67 µM and 0.628 µM	0.56 µM and 0.55 µM	13.4 µM and > 10 µM	0.287 µM and 0.334 µM	0.797 µM and > 6.55 µM	0.922 µM and 0.632 µM	3.6 µM and > 6.26 µM
Cc1cc(C(=O)NOCCO)c(Nc2ccc(I)cc2F)n(C)c1=O	< 0.01 µM	> 100 µM	> 100 µM	> 100 µM	> 10 µM and 78.9 µM	> 100 µM	0.00159 µM and < 0.01 µM	2.89 µM	> 36.5 µM	> 100 µM	> 83.9 µM	> 100 µM	> 38.5 µM	> 100 µM	12.3 µM	> 100 µM	> 100 µM	> 100 µM	< 0.01 µM	> 100 µM
OC(CBr)C(O)C(O)C(O)CBr (stereo not given)	> 100 µM	> 100 µM	–	> 100 µM	–	> 100 µM	–	> 100 µM	–	> 100 µM	–	> 67.9 µM	–	> 100 µM	15.3 µM and 57.5 µM	> 100 µM	10.8 µM	> 30.4 µM	–	> 100 µM
COc1cccc(/C=C/C(=O)c2cc3c(N)c(C(=O)Nc4ccccc4)sc3nc2C)c1	1.48 µM	5.53 µM	1.47 µM	5.06 µM	1.24 µM	3.89 µM	1.27 µM	3.52 µM	1.63 µM	> 50 µM	0.802 µM	1.72 µM	0.957 µM	1.84 µM	1.12 µM	2.78 µM	1.59 µM	> 50 µM	1.54 µM	4.71 µM
Nc1[nH]c(=S)[nH]c(=O)c1N=Nc1c(Br)cc(S(N)(=O)=O)cc1Br	–	> 100 µM	–	> 100 µM	–	> 100 µM	–	> 100 µM	–	> 100 µM	–	> 100 µM	–	> 100 µM	–	> 100 µM	–	> 100 µM	–	> 100 µM
O=C(C#Cc1ccccc1)N1CCCCC1	–	> 100 µM	–	> 100 µM	–	> 100 µM	–	> 100 µM	–	> 100 µM	–	> 100 µM	–	> 100 µM	–	> 100 µM	–	> 100 µM	–	> 100 µM
CCN(Cc1c(F)cccc1C(F)(F)F)c1ccc(CO)c(Cl)c1	7.81 µM	23.2 µM	12.3 µM	25.3 µM	< 0.0249 µM	0.285 µM	17.4 µM	33.4 µM	14.6 µM	31.3 µM	15.9 µM	30.9 µM	15.6 µM	29.4 µM	13 µM	26.2 µM	16.5 µM	37.1 µM	2.44 µM	14 µM
O=C(Nc1ccn(C2CCC(COC(c3ccccc3)(c3ccccc3)c3ccccc3)O2)c(=O)n1)c1ccccc1 (stereo not given)	–	6.41 µM	–	5.71 µM	–	27.9 µM	–	11.8 µM	–	10.1 µM	–	6.41 µM	–	7 µM	–	4.33 µM	–	5.16 µM	–	4.2 µM
COC(=O)C1(N2CCOCC2)CCC([C@@H](c2ccccc2)C(C)[N+](=O)[O-])C1 (stereo not given in full)	–	> 100 µM	–	> 100 µM	–	9.62 µM	–	> 100 µM	–	> 100 µM	–	> 100 µM	–	> 100 µM	–	> 100 µM	–	> 100 µM	–	> 100 µM
